The pKd is the Kd on a negative log10 scale, so that one unit is a factor of ten. As usually defined, the pEC50 is the EC50 on a negative log10 scale, so that one unit is a factor of ten. Read a high pEC50 as a small EC50.

For 17 compounds, Kd and EC50 results are on record in patent US10947252B2, “Inhibitors of KEAP1-Nrf2 protein-protein interaction” (Janssen Pharmaceutica NV, priority 2018, dated 2021).

pEC50, pKd: −log10 of the molar value. Some results are limits rather than exact numbers.

Experiment [1] addresses Kelch domain of human KEAP1 (321-624 aa) (Homo sapiens (Human), UniProt Q14145). Briefly: KEAP1 KELCH ThermoFluor binding assay.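 Note: Ligand-induced melting temperature shift of E. coli-expressed KEAP1 Kelch protein, Kd estimated from concentration-response curves of ΔTm.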 The following applies: KEAP Kelch […], 1,8-ANS, pH 7.0, average of results obtained, read-out: Tf Kd.
Experiment [2] concerns Glo-Response ARE-luc2P HEK293 cell line. Briefly: ARE luciferase reporter cell-based assay.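 Note: luciferase signal tracks Nrf2 activation of the ARE once compounds disrupt KEAP1-Nrf2 binding, read with One-Glo reagent, DMSO serving as low control.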 The following applies: Homo sapiens, HEK293, 24 h, average of results obtained. (Reporter assays use an easily measured gene product as a stand-in for the process of interest.)
Procedure: The ARE assay utilizes a luciferase reporter cell line where the signal is proportional to NrF2 activation of the ARE. The cell line is commercially available from Promega and was prepared by stably transfecting HEK293 cells with a vector (pGL4.11) which contains the ARE response element upstream of a minimal promoter. The promoter drives expression of luc2 firefly luciferase gene. Upon disruption of KEAP1-Nrf2 binding by compound, Nrf2 translocates into the nucleus where it binds to the ARE and activates transcription of luciferase.
The materials used in this ARE assay are as follows: Glo-Response ARE-luc2P HEK293 cell line and One-Glo Luciferase Assay System were purchased from Promega (Madison, Wis.). Dulbecco's Modified Eagle medium ((DMEM), low glucose, GlutaMAX, pyruvate), fetal bovine serum (certified, heat inactivated), hygromycin B, Dulbecco's phosphate-buffered saline were purchased from Life Technologies (Grand Island, N.Y.). Penicillin, streptomycin solution (100×) and 0.05% trypsin-EDTA were purchased from Corning (Manassas, Va.). DMSO was purchased from EMD Millipore.
The ARE assay protocol is as follows: cells were maintained in growth medium (DMEM+10% FBS, 200 μg/mL hygromycin B, p-s) between 20-90% confluency by splitting twice per week. One day before the assay, cells were trypsinized, counted to determine viable cell count, and re-suspended in assay medium (DMEM+10% FBS, p-s) at 250,000 cells/mL. […] 100% DMSO was used as the low control. A 11-point dose series of the control compound was included on every plate. Compounds were spotted to an intermediate plate (Greiner #781280 V-bottom 384 well plate) using the Echo acoustic dispenser (Labscyte San Jose, Calif.). Spot size was 240 nL.
On the day of the assay, 60 mL per well of assay medium was added to the pre-spotted plate to make 2× compound stocks using the Combi (Thermo Waltham, Mass.). Compound and medium were mixed on the Janus and 20 mL of 2×compound stock was added to the cell plate which already contained 20 mL of assay medium from cell plating. […] The plates were returned to the tissue culture incubator for 24 hours.
The next day, luciferase activity was measured according to the manufacturer's protocol for One-Glo luciferase reagent. The plates were removed from the incubator and allowed to equilibrate to room temperature for 30 min. Forty microliters of One-Glo reagent (equilibrated to room temperature) was added per well using the Combi. The plates were mixed on an orbital shaker for 3 min. Luminescence was read on the BMG Pherastar multiplate reader (Cary, N.C.) using the luminescence protocol (1 sec interval).
The dose-response data were analyzed in Genedata Screener using 4PL nonlinear regression model. Raw luminescence counts as well as normalized values were used for data analysis.

Chain of Kelch domain of human KEAP1 (321-624 aa) (Q14145 321-624): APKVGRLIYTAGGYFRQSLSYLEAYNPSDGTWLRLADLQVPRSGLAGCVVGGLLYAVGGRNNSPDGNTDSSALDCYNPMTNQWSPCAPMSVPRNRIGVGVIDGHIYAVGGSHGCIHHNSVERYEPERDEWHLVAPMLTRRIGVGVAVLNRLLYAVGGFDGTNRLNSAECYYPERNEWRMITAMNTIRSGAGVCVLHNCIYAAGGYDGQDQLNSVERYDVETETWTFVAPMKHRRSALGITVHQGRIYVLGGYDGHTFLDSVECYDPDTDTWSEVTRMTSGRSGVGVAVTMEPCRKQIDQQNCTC

For the compound `Cc1ccc2c(n1)OC1(CC1)CN(Cc1cc([C@H](CC(=O)O)c3ccn4c(C(F)(F)F)nnc4c3C)ccc1C)S2(=O)=O` (single isomer, unassigned) [Example 538, (*S)-3-(4-Methyl-3-((7′-methyl-1′,1′-dioxidospiro[cyclopropane-1,4′-pyrido[2,3-b][1,4,5]oxathiazepin]-2′(3′H)-yl)methyl)phenyl)-3-(8-methyl-3-(trifluoromethyl)-[1,2,4]triazolo[4,3-a]pyridin-7-yl)propanoic Acid], the pKd in experiment [1] was over 9.00. This compound also had a pEC50 in experiment [2] of 7.23.

Regarding `Cc1ccc([C@H](CC(=O)O)c2ccn3c(C(F)F)nnc3c2C)cc1CN1C[C@H]2CCCN2c2ncc(C#N)cc2S1(=O)=O` (single isomer, unassigned) [Example 540, (*S)-3-(3-(((*R)-3-Cyano-5,5-dioxido-7a,8,9,10-tetrahydropyrido[2,3-f]pyrrolo[2,1-d][1,2,5]thiadiazepin-6(7H)-yl)methyl)-4-methylphenyl)-3-(3-(difluoromethyl)-8-methyl-[1,2,4]triazolo[4,3-a]pyridin-7-yl)propanoic Acid], the negative-log Kd (pKd) in experiment [1] was over 9.00. For the same compound, the pEC50 in experiment [2] was 7.57.

On to `Cc1ccc([C@@H](CC(=O)O)c2ccn3c(C(F)F)nnc3c2C)cc1CN1C[C@H]2CCCN2c2ncc(C#N)cc2S1(=O)=O` (single isomer, unassigned) [Example 541, (*R)-3-(3-(((*R)-3-Cyano-5,5-dioxido-7a,8,9,10-tetrahydropyrido[2,3-f]pyrrolo[2,1-d][1,2,5]thiadiazepin-6(7H)-yl)methyl)-4-methylphenyl)-3-(3-(difluoromethyl)-8-methyl-[1,2,4]triazolo[4,3-a]pyridin-7-yl)propanoic Acid], for which the negative-log Kd (pKd) in experiment [1] was over 9.00. In experiment [2], this compound showed a pEC50 of 6.65.

With `Cc1ccc([C@H](CC(=O)O)c2ccn3c(C(F)F)nnc3c2C)cc1CN1C[C@@H]2CCCN2c2ncc(C#N)cc2S1(=O)=O` (single isomer, unassigned) [Example 543, (*S)-3-(3-(((S)-3-Cyano-5,5-dioxido-7a,8,9,10-tetrahydropyrido[2,3-f]pyrrolo[2,1-d][1,2,5]thiadiazepin-6(7H)-yl)methyl)-4-methylphenyl)-3-(3-(difluoromethyl)-8-methyl-[1,2,4]triazolo[4,3-a]pyridin-7-yl)propanoic Acid], the pKd in experiment [1] is over 9.00. The compound also had a negative-log EC50 (pEC50) in experiment [2] of 7.37.

With `Cc1ccc([C@@H](CC(=O)O)c2ccn3c(C(F)F)nnc3c2C)cc1CN1C[C@@H]2CCCN2c2ncc(C#N)cc2S1(=O)=O` (single isomer, unassigned) [Example 544, (*R)-3-(3-(((S)-3-Cyano-5,5-dioxido-7a,8,9,10-tetrahydropyrido[2,3-f]pyrrolo[2,1-d][1,2,5]thiadiazepin-6(7H)-yl)methyl)-4-methylphenyl)-3-(3-(difluoromethyl)-8-methyl-[1,2,4]triazolo[4,3-a]pyridin-7-yl)propanoic Acid], in experiment [1], the pKd is over 9.00. Besides, in experiment [2], the pEC50 is 6.56.

On to `Cc1ccc([C@H](CC(N)=O)c2ccn3c(C(F)(F)F)nnc3c2C)cc1CN1C[C@@H]2CCCCN2c2ncccc2S1(=O)=O` (single isomer, unassigned) [Example 548, (*S)-3-(3-(((*S)-5,5-Dioxido-7,7a,8,9,10,11-hexahydro-6H-dipyrido[2,1-d:2′,3′-f][1,2,5]thiadiazepin-6-yl)methyl)-4-methylphenyl)-3-(8-methyl-3-(trifluoromethyl)-[1,2,4]triazolo[4,3-a]pyridin-7-yl)propanamide], for which, in experiment [1], the negative-log Kd (pKd) is 6.58. The same compound gave a pEC50 in experiment [2] of 5.56.

As for `Cc1ccc([C@@H](CC(N)=O)c2ccn3c(C(F)(F)F)nnc3c2C)cc1CN1C[C@@H]2CCCCN2c2ncccc2S1(=O)=O` (single isomer, unassigned) [Example 549, (*R)-3-(3-(((*S)-5,5-Dioxido-7,7a,8,9,10,11-hexahydro-6H-dipyrido[2,1-d:2′,3′-f][1,2,5]thiadiazepin-6-yl)methyl)-4-methylphenyl)-3-(8-methyl-3-(trifluoromethyl)-[1,2,4]triazolo[4,3-a]pyridin-7-yl)propanamide], the pKd in experiment [1] is 4.07. The compound also showed a pEC50 in experiment [2] of under 4.70.

In the case of `Cc1ccc([C@H](CC(=O)O)c2ccn3c(C(F)F)nnc3c2C)cc1CN1CC2(CC2)Oc2ncc(C(N)=O)cc2S1(=O)=O` (single isomer, unassigned) [Example 552, (*S)-3-(3-((8′-Carbamoyl-1′,1′-dioxidospiro[cyclopropane-1,4′-pyrido[2,3-b][1,4,5]oxathiazepin]-2′(3′H)-yl)methyl)-4-methylphenyl)-3-(3-(difluoromethyl)-8-methyl-[1,2,4]triazolo[4,3-a]pyridin-7-yl)propanoic Acid], the pKd in experiment [1] is 6.82. In experiment [2], this compound gave a negative logarithm of the EC50 (pEC50) of under 4.70.

Turning to `Cc1ccc([C@@H](CC(=O)O)c2ccn3c(C(F)F)nnc3c2C)cc1CN1CC2(CC2)Oc2ncc(C(N)=O)cc2S1(=O)=O` (single isomer, unassigned) [Example 553, (*R)-3-(3-((8′-Carbamoyl-1′,1′-dioxidospiro[cyclopropane-1,4′-pyrido[2,3-b][1,4,5]oxathiazepin]-2′(3′H)-yl)methyl)-4-methylphenyl)-3-(3-(difluoromethyl)-8-methyl-[1,2,4]triazolo[4,3-a]pyridin-7-yl)propanoic Acid], the negative logarithm of the Kd (pKd) in experiment [1] is 6.11. For the same compound, in experiment [2], the negative-log EC50 (pEC50) was under 4.70.

In the case of `Cc1ccc([C@H](c2ccn3c(C(F)(F)F)nnc3c2C)[C@H](C)C(=O)O)cc1CN1CC2(CC2)Oc2ncccc2S1(=O)=O` (single isomer, unassigned) [Example 554, (2S,3*R)-3-(3-(Trifluoromethyl)-8-methyl-[1,2,4]triazolo[4,3-a]pyridin-7-yl)-3-(3-((1′,1′-dioxidospiro[cyclopropane-1,4′-pyrido[2,3-b][1,4,5]oxathiazepin]-2′(3′H)-yl)methyl)-4-methylphenyl)-2-methylpropanoic Acid], the pKd in experiment [1] was over 9.00. The negative logarithm of the EC50 (pEC50) in experiment [2] is 6.74.

As to `CCn1nnc2c(C)c([C@H](c3ccc(C)c(CN4CC5(CCOCC5)Oc5ncccc5S4(=O)=O)n3)C(C)(C)C(=O)O)ccc21` (single isomer, unassigned) [Example 555, (*S)-3-(6-((1′,1′-Dioxido-2,3,5,6-tetrahydrospiro[pyran-4,4′-pyrido[2,3-b][1,4,5]oxathiazepin]-2′(3′H)-yl)methyl)-5-methylpyridin-2-yl)-3-(1-ethyl-4-methyl-1H-benzo[d][1,2,3]triazol-5-yl)-2,2-dimethylpropanoic Acid], in experiment [1], the pKd was over 9.00. The pEC50 in experiment [2] is 8.85.

`CCn1nnc2c(C)c([C@@H](c3ccc(C)c(CN4CC5(CCOCC5)Oc5ncccc5S4(=O)=O)n3)C(C)(C)C(=O)O)ccc21` (single isomer, unassigned) [Example 556, (*R)-3-(6-((1′,1′-Dioxido-2,3,5,6-tetrahydrospiro[pyran-4,4′-pyrido[2,3-b][1,4,5]oxathiazepin]-2′(3′H)-yl)methyl)-5-methylpyridin-2-yl)-3-(1-ethyl-4-methyl-1H-benzo[d][1,2,3]triazol-5-yl)-2,2-dimethylpropanoic Acid]: in experiment [1], the pKd was 5.31. In experiment [2], this compound had a negative logarithm of the EC50 (pEC50) of 5.76.

For the compound `CCn1nnc2c(C)c([C@H](c3ccc(C)c(CN4CC5(CCOCC5)Oc5ncc(C)cc5S4(=O)=O)n3)C(C)(C)C(=O)O)ccc21` (single isomer, unassigned) [Example 557, (*S)-3-(1-Ethyl-4-methyl-1H-benzo[d][1,2,3]triazol-5-yl)-2,2-dimethyl-3-(5-methyl-6-((8′-methyl-1′,1′-dioxido-2,3,5,6-tetrahydrospiro[pyran-4,4′-pyrido[2,3-b][1,4,5]oxathiazepin]-2′(3′H)-yl)methyl)pyridin-2-yl)propanoic Acid], the pKd in experiment [1] was over 9.00. Besides, the pEC50 in experiment [2] is 9.25.

Consider `CCn1nnc2c(C)c([C@@H](c3ccc(C)c(CN4CC5(CCOCC5)Oc5ncc(C)cc5S4(=O)=O)n3)C(C)(C)C(=O)O)ccc21` (single isomer, unassigned) [Example 558, (*R)-3-(1-Ethyl-4-methyl-1H-benzo[d][1,2,3]triazol-5-yl)-2,2-dimethyl-3-(5-methyl-6-((8′-methyl-1′,1′-dioxido-2,3,5,6-tetrahydrospiro[pyran-4,4′-pyrido[2,3-b][1,4,5]oxathiazepin]-2′(3′H)-yl)methyl)pyridin-2-yl)propanoic Acid], for which the negative logarithm of the Kd (pKd) in experiment [1] was 6.46. In experiment [2], this compound had a pEC50 of 6.71.

For `Cc1cnc2c(c1)S(=O)(=O)N(Cc1cc([C@@H](c3ccn4c(C(F)F)nnc4c3C)C(C)(C)C(=O)O)ccc1C)CC1(CC1)O2` (single isomer, unassigned) [Example 560, (*S)-3-(3-(Difluoromethyl)-8-methyl-[1,2,4]triazolo[4,3-a]pyridin-7-yl)-2,2-dimethyl-3-(4-methyl-3-((8′-methyl-1′,1′-dioxidospiro[cyclopropane-1,4′-pyrido[2,3-b][1,4,5]oxathiazepin]-2′(3′H)-yl)methyl)phenyl)propanoic Acid], the pKd in experiment [1] was over 9.00. This compound showed a pEC50 in experiment [2] of 8.72.

For the compound `Cc1cnc2c(c1)S(=O)(=O)N(Cc1cc([C@H](c3ccn4c(C(F)F)nnc4c3C)C(C)(C)C(=O)O)ccc1C)CC1(CC1)O2` (single isomer, unassigned) [Example 561, (*R)-3-(3-(Difluoromethyl)-8-methyl-[1,2,4]triazolo[4,3-a]pyridin-7-yl)-2,2-dimethyl-3-(4-methyl-3-((8′-methyl-1′,1′-dioxidospiro[cyclopropane-1,4′-pyrido[2,3-b][1,4,5]oxathiazepin]-2′(3′H)-yl)methyl)phenyl)propanoic Acid], the pKd in experiment [1] is 7.28. The compound further showed a pEC50 in experiment [2] of 6.59.

Regarding `Cc1ncc([C@@H](CC(=O)O)c2ccn3c(C(F)(F)F)nnc3c2C)cc1CN1CC2(CCOCC2)Oc2ncccc2S1(=O)=O` (single isomer, unassigned) [Example 562, (*S)-3-(5-((1′,1′-Dioxido-2,3,5,6-tetrahydrospiro[pyran-4,4′-pyrido[2,3-b][1,4,5]oxathiazepin]-2′(3′H)-yl)methyl)-6-methylpyridin-3-yl)-3-(8-methyl-3-(trifluoromethyl)-[1,2,4]triazolo[4,3-a]pyridin-7-yl)propanoic Acid], the pKd in experiment [1] is 7.83. The compound also gave a pEC50 in experiment [2] of 5.60.
